Results published in patent US20260364080A1, “PYRAZOLO-PYRIMIDINONE COMPOUNDS FOR USE IN METHODS OF INHIBITING WEE1 A KINASE” (Acrivon Therapeutics, Inc., priority 2023, published 2026).
Like-named read-outs stand apart in the source and are kept apart here.

What was measured:
[1] = target: T1, Wee1A kinase (CDK1 Tyr15 phosphorylation in ACHN renal cell carcinoma cells) (Homo sapiens, UniProt P30291); test: High-content imaging of pCdk1 Y15, Wee1A kinase target engagement in ACHN cells; type: cell-based
T1 construct: pCDK1 Tyr15 immunofluorescence read-out
Procedure, shortened: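 EC50 values come from the per-well fraction of cells with nuclear pCdk1 Y15 staining, normalised to DMSO control, by automated immunofluorescence imaging. Cells were ACHN renal carcinoma, treated 4 h with compound at 7–5,000 nM or 0.3–200 nM.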

ACHN cells = test: Cell Titer Glo viability assay, ACHN cells; type: cell-based; conditions: 144 h, absolute EC50
Experimental: Each of an ACHN renal cell carcinoma cell line (ATCC) and a DAOY medulloblastoma cell line, and an A427 lung cancer line were cultured in Minimum Essential Medium Eagle supplemented with 10% fetal calf serum (Sigma), 1% Penicillin-Streptomycin and 10 mM HEPES buffer (HyClone). Cell cultures were kept in a humidified incubator at 37 °C and 5% CO2. Cells were routinely tested for Mycoplasma contamination.
ACHN cells, DAOY cells, or A427 cells were seeded at a density of 400, 250, or 500 cells per well respectively, in tissue culture treated 384 well plates (Corning Costar). After overnight incubation, cells were treated with drugs at concentrations ranging from 17 to 10 000 nM. Viability compared to untreated control was assessed at 144 h using Cell Titer Glo assay 2.0 (Promega). […] “NT” means the compounds was not tested in the indicated cells.

[2] = target: T2, Myt1 kinase (recombinant PMYT-1) (Homo sapiens, UniProt Q99640); test: Myt1 kinase binding assay (LanthaScreen Eu Kinase Binding Assay)
T2 construct: full length PMYT-1 was expressed by baculovirus in insect cells; purchased Invitrogen A30984; host or cells: insect cells (baculovirus)
T2 sequence (Q99640 1-499): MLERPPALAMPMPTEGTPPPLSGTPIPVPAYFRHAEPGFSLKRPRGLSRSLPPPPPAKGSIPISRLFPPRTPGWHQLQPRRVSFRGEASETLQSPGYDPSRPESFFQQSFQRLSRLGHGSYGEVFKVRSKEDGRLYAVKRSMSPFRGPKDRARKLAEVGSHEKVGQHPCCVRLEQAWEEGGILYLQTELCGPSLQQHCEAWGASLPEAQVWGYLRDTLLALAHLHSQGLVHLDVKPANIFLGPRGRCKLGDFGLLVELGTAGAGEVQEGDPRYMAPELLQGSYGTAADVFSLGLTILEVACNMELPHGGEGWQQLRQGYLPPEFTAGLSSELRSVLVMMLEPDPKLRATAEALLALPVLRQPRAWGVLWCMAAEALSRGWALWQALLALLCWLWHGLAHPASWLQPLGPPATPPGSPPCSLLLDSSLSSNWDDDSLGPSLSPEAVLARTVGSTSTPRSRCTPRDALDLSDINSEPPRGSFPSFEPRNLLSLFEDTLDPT
Procedure, shortened: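 Compound binding to Myt1 kinase was assessed using the LanthaScreen Eu Kinase Binding Assay. This europium-based binding format was applied to quantify how strongly each compound bound to the Myt1 enzyme, and the binding affinity was reported for each compound as an IC50 value.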

[3] = target: T3, recombinant human Wee1A kinase (Homo sapiens, UniProt P30291); test: Wee1A kinase binding assay (LanthaScreen Eu time-resolved FRET)
T3 construct: full length Wee1 kinase was expressed by baculovirus in insect cells; purchased Invitrogen PV3817; host or cells: insect cells (baculovirus)
Procedure, shortened: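 Full-length, baculovirus-expressed GST-tagged Wee1A (5 nM) was mixed with 2 nM Eu-anti-GST antibody, 30 nM kinase tracer 178 and compound (1% DMSO). Buffer was 50 mM HEPES pH 7.5, 10 mM MgCl2, 1 mM EGTA, 0.01% Brij-35, incubated 60 min at room temperature. TR-FRET 665/615 nm emission ratios from duplicates were curve-fitted.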

[4] = 4 h treatment, nuclear positivity for pCdk1 Y15 vs DMSO control, read-out: CDK1 Tyr15 Phosphorylation EC50
[5] = 3 nM tracer 178, 2.5 nM PMYT-1, 1 nM Eu-labeled antibody, read-out: Myt1 kinase Binding IC50
[6] = 30 nM tracer 178, 5 nM Wee1A kinase, 2 nM Eu-labeled antibody, 60 minutes at room temperature, read-out: Wee1A kinase Binding IC50
[7] = read-out: CDK1 Tyr15 Phosphorylation EC50, 4 h treatment, nuclear positivity for pCdk1 Y15 vs DMSO control

T1 sequence (P30291 whole entry): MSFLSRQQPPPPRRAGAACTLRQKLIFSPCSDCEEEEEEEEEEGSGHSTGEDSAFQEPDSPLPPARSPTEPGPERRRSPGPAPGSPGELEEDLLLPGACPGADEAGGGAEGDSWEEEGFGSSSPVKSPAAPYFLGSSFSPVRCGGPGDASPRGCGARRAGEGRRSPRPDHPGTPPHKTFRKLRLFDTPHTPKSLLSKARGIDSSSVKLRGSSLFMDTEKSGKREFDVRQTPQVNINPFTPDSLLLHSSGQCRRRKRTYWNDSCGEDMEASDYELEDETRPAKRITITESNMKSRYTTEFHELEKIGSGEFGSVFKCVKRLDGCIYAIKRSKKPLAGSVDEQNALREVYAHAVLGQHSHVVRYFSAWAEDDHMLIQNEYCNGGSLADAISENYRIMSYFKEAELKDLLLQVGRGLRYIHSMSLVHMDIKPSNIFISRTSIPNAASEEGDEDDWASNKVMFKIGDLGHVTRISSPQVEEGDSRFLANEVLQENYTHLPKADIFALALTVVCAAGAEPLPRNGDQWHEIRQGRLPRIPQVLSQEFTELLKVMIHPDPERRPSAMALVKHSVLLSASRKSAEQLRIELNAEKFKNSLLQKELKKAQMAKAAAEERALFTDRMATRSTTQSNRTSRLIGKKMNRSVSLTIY
T3 sequence (P30291 whole entry): as above

Compound	EC50 [1, 4] [nM]	EC50 (ACHN cells; Homo sapiens) [nM]	IC50 [2, 5] [nM]	IC50 [3, 6] [nM]	EC50 [1, 7] [nM]	IC50 [3] [nM]	IC50 ([2]; Myt1 kinase Binding IC50, 3 nM tracer 178, 2.5 nM PMYT-1, 1 nM Eu-labeled antibody) [nM]	EC50 (ACHN cells) [nM]
C=CCn1c(=O)c2cnc(Nc3ccc(OCCCF)cc3)nc2n1-c1cccc(OC2CCNCC2)n1 [Compound 377]	< 100	≤ 100	< 20	< 10	–	–	–	–
C=CCn1c(=O)c2cnc(Nc3cccc(C#N)c3)nc2n1-c1cccc(OC2CCN(C)CC2)n1 [Compound 305, m-{2-allyl-1-[6-(1-methyl-4-piperidyloxy)-2-pyridyl]-3-oxo-1,2-dihydro-3H-1,2,5,7-tetraazainden-6-ylamino}benzonitrile]	< 100	≤ 100	20 to 100	< 10	–	–	–	–
C=CCn1c(=O)c2cnc(Nc3ccc(OCC(F)(F)F)cc3)nc2n1-c1cccc(OC2CCNCC2)n1 [Compound 227, 2-allyl-1-[6-(4-piperidyloxy)-2-pyridyl]-6-[p-(2,2,2-trifluoroethoxy)phenylamino]-1,2-dihydro-3H-1,2,5,7-tetraazainden-3-one]	< 100	≤ 100	< 20	< 10	–	–	–	–
CCn1c(=O)c2cnc(Nc3cccc(C)c3)nc2n1-c1cccc(OC2CCN(C)CC2)n1 [Compound 289, 2-ethyl-1-[6-(1-methyl-4-piperidyloxy)-2-pyridyl]-6-m-toluidino-1,2-dihydro-3H-1,2,5,7-tetraazainden-3-one]	< 100	100 to 500	100 to 500	< 10	–	–	–	–
C=CCn1c(=O)c2cnc(Nc3ccc(F)cc3)nc2n1-c1ccnc(NC2CCN(C)CC2)n1 [Compound 312, 2-allyl-6-(p-fluorophenylamino)-1-[2-(1-methyl-4-piperidylamino)-4-pyrimidinyl]-1,2-dihydro-3H-1,2,5,7-tetraazainden-3-one]	< 100	100 to 500	100 to 500	< 10	–	–	–	–
C=CCn1c(=O)c2cnc(Nc3ccc4c(cnn4C)c3)nc2n1-c1cccc(NC2CCN(C)CC2)c1 [Compound 226, 2-allyl-6-(1-methyl-1H-indazol-5-ylamino)-1-[m-(1-methyl-4-piperidylamino)phenyl]-1,2-dihydro-3H-1,2,5,7-tetraazainden-3-one]	< 100	100 to 500	> 500	< 10	–	–	–	–
CCn1c(=O)c2cnc(Nc3ccc4c(cnn4C)c3)nc2n1-c1cccc(N(C)C2CCN(C)CC2)n1 [Compound 287, 1-{6-[N-methyl(1-methyl-4-piperidyl)amino]-2-pyridyl}-2-ethyl-6-(1-methyl-1H-indazol-5-ylamino)-1,2-dihydro-3H-1,2,5,7-tetraazainden-3-one]	–	100 to 500	–	–	< 100	< 10	–	–
C=CCn1c(=O)c2cnc(Nc3ccc4c(cnn4C)c3)nc2n1-c1cccc(O[C@H]2CCCN(C)C2)n1 [Compound 332, 1-{6-[(S)-1-methyl-3-piperidyloxy]-2-pyridyl}-2-allyl-6-(1-methyl-1H-indazol-5-ylamino)-1,2-dihydro-3H-1,2,5,7-tetraazainden-3-one]	< 100	100 to 500	100 to 500	< 10	–	–	–	–
C=CCn1c(=O)c2cnc(Nc3ccc(F)cc3)nc2n1-c1cccc(OC2CCNCC2)n1 [Compound 304, 2-allyl-6-(p-fluorophenylamino)-1-[6-(4-piperidyloxy)-2-pyridyl]-1,2-dihydro-3H-1,2,5,7-tetraazainden-3-one]	< 100	100 to 500	20 to 100	< 10	–	–	–	–
CCn1c(=O)c2cnc(Nc3ccc4c(cnn4C)c3)nc2n1-c1cccc(NC2CCN(C)CC2)n1 [Compound 288, 2-ethyl-6-[(1-methyl-1H-indazol-5-yl)amino]-1-{6-[(1-methylpiperidin-4-yl)amino]pyridin-2-yl}-1H,2H,3H-pyrazolo[3,4-d]pyrimidin-3-one]	< 100	100 to 500	> 500	< 10	–	–	–	–
C=CCn1c(=O)c2cnc(Nc3ccc(Cl)cc3)nc2n1-c1cccc(N(C)C2CCN(C)CC2)n1 [Compound 157, 6-[(4-chlorophenyl)amino]-1-{6-[methyl(1-methylpiperidin-4-yl)amino]pyridin-2-yl}-2-(prop-2-en-1-yl)-1H,2H,3H-pyrazolo[3,4-d]pyrimidin-3-one]	–	100 to 500	–	–	100 to 500	< 10	> 500	–
C=CCn1c(=O)c2cnc(Nc3cnn(CCC)c3)nc2n1-c1cccc(OC2CCN(C)CC2)n1 [Compound 180, 2-allyl-1-[6-(1-methyl-4-piperidyloxy)-2-pyridyl]-6-(1-propyl-4-pyrazolylamino)-1,2-dihydro-3H-1,2,5,7-tetraazainden-3-one]	< 100	≤ 100	100 to 500	< 10	–	–	–	–
C=CCn1c(=O)c2cnc(Nc3ccc4ccoc4c3)nc2n1-c1cccc(OC2CCN(C)CC2)n1 [Compound 195]	< 100	–	100 to 500	–	–	–	–	≤ 100
CCn1c(=O)c2cnc(Nc3ccc(C#N)cc3)nc2n1-c1cccc(OC2CCN(C)CC2)n1 [Compound 310, p-{2-ethyl-1-[6-(1-methyl-4-piperidyloxy)-2-pyridyl]-3-oxo-1,2-dihydro-3H-1,2,5,7-tetraazainden-6-ylamino}benzonitrile]	100 to 500	100 to 500	20 to 100	< 10	–	–	–	–
CCn1c(=O)c2cnc(Nc3cccc(C)c3)nc2n1-c1cccc(OC2CCNCC2)n1 [Compound 298, 2-ethyl-1-[6-(4-piperidyloxy)-2-pyridyl]-6-m-toluidino-1,2-dihydro-3H-1,2,5,7-tetraazainden-3-one]	100 to 500	100 to 500	100 to 500	< 10	–	–	–	–
C=CCn1c(=O)c2cnc(Nc3ccc4c(cnn4C)c3)nc2n1-c1cccc(O[C@@H]2CCCN(C)C2)n1 [Compound 331, 6-[(1-methyl-1H-indazol-5-yl)amino]-1-(6-{[(3R)-1-methylpiperidin-3-yl]oxy}pyridin-2-yl)-2-(prop-2-en-1-yl)-1H,2H,3H-pyrazolo[3,4-d]pyrimidin-3-one]	< 100	100 to 500	–	< 10	–	–	–	–
CCn1c(=O)c2cnc(Nc3ccc(-c4ccccc4)cc3)nc2n1-c1cccc(OC2CCNCC2)n1 [Compound 272, 6-(4-biphenylylamino)-2-ethyl-1-[6-(4-piperidyloxy)-2-pyridyl]-1,2-dihydro-3H-1,2,5,7-tetraazainden-3-one]	100 to 500	–	< 20	< 10	–	–	–	–
C=CCn1c(=O)c2cnc(Nc3ccc4cn(C)nc4c3)nc2n1-c1cccc(OC2CCNCC2)n1 [Compound 393, 2-allyl-6-((2-methyl-2H-indazol-6-yl)amino)-1-(6-(piperidin-4-yloxy)pyridin-2-yl)-1,2-dihydro-3H-pyrazolo[3,4-d]pyrimidin-3-one]	100 to 500	–	20 to 100	< 10	–	–	–	–
C=CCn1c(=O)c2cnc(Nc3ccc(Cl)c(C)c3)nc2n1-c1cccc(NC2CCNCC2)n1 [Compound 133, 2-allyl-6-(4-chloro-3-toluidino)-1-[6-(4-piperidylamino)-2-pyridyl]-1,2-dihydro-3H-1,2,5,7-tetraazainden-3-one]	100 to 500	–	100 to 500	< 10	–	–	–	–
